Reference: US10940188B2, “Compounds and methods for treatment and prevention of Flavivirus infection” (priority 2016, dated 2021)
Where a name gives a salt, the structure may show the parent alone. Read-outs that look alike come from different tables or passages of the source.

How the values were obtained:
[1] = tested on: ZIKV-induced caspase 3/7 activity in human astrocytes; test: Caspase 3/7 activity assay, ZIKV-infected human astrocytes; type: cell-based; settings: Astrocyte; for IC50: read-out: Caspase 3 (IC50, uM) Astrocyte; for Emax: read-out: Caspase 3 (efficacy, %) Astrocyte
Description: (§1) Caspase-Glo 3/7 assay kit (catalog number G8092; Promega, Madison, Wis.) was used to detect caspase 3/7 activity. Reagents were reconstituted as described in the protocol from the manufacturer. Polystyrene plates (384-well and 1536-well; regular tissue culture treated and PDL coated) were purchased from Greiner Bio-One (Monroe, N.C.). Cells were seeded in 384- and 1536-well assay plates and cultured at 37° C. with 5% CO2 for 16 hours. ZIKV solution was added to cells, followed by incubation at 37° C. with 5% CO2 for 6 hours. Caspase-Glo 3/7 was added to each well, unless otherwise specified, and incubated at room temperature for 30 minutes. The luminescence intensity of the assay plates was measured using a ViewLux plate reader (PerkinElmer). Data were normalized by using the cell-containing wells without ZIKV as a negative control (0% induction of caspase 3/7 activity) and wells containing ZIKV infected cells that induced caspase 3/7 activity were used as a positive control (100% induction of caspase 3/7 activity). […]
(§2) Caspase-Glo 3/7 assay kit (Promega) was used to detect caspase 3/7 activity. Reagents were reconstituted as described in the protocol from the manufacturer. Cells were seeded in 384- and 1536-well assay plates and cultured at 37° C. with 5% CO2 for 16 hours. ZIKV solution was added to cells, followed by incubation at 37° C. with 5% CO2 for 6 hours. Caspase-Glo 3/7 was added to each well at a 1:1 ratio, unless otherwise specified, and incubated at room temperature for 30 minutes. The luminescence intensity of the assay plates was measured using a ViewLux plate reader (PerkinElmer). Data was normalized by using the cell-containing wells without ZIKV as a negative (0% induction of caspase 3/7 activity) control and wells containing ZIKV infected cells that induced caspase 3/7 activity were used as a positive control (100% induction of caspase 3/7 activity). […]

[2] = tested on: ZIKV-induced caspase 3/7 activity in hNPCs; test: Caspase 3/7 activity assay, ZIKV-infected hNPCs; type: cell-based; settings: Homo sapiens; for IC50: read-out: Caspase 3 (IC50, uM) NPCs; for Emax: read-out: Caspase 3 (efficacy, %) NPCs
Description: Caspase-Glo 3/7 assay kit (catalog number G8092; Promega, Madison, Wis.) was used to detect caspase 3/7 activity. Reagents were reconstituted as described in the protocol from the manufacturer. Polystyrene plates (384-well and 1536-well; regular tissue culture treated and PDL coated) were purchased from Greiner Bio-One (Monroe, N.C.). Cells were seeded in 384- and 1536-well assay plates and cultured at 37° C. with 5% CO2 for 16 hours. ZIKV solution was added to cells, followed by incubation at 37° C. with 5% CO2 for 6 hours. Caspase-Glo 3/7 was added to each well, unless otherwise specified, and incubated at room temperature for 30 minutes. The luminescence intensity of the assay plates was measured using a ViewLux plate reader (PerkinElmer). Data were normalized by using the cell-containing wells without ZIKV as a negative control (0% induction of caspase 3/7 activity) and wells containing ZIKV infected cells that induced caspase 3/7 activity were used as a positive control (100% induction of caspase 3/7 activity).
Human NPCs were seeded onto PDL coated 1536-well assay plates at 250 cells per 3 μl/well and incubated at 37° C. in 5% CO2 for 16 hours. Test compounds dissolved in DMSO were transferred to assay plates at a volume of 23 nl/well by an automated pintool workstation (Wako Automation, San Diego, Calif.). Compounds were incubated with cells for 30 minutes at 37° C. in 5% CO2, immediately followed by the addition of 2 μl/well of ZIKV. Incubation time of compound-treated cells with ZIKV varied based on assay format. Experiments measuring virus-induced caspase 3/7 activity required a 6 hour incubation of ZIKV in the presence compounds at 37° C. in 5% CO2. Following this incubation, 3.5 μl/well of caspase 3/7 reagent mixture was added to assay plates. The plates were incubated for 30 minutes at room temperature, and the resultant luminescence signal was measured using a ViewLux plate reader (Perkin Elmer). Experiments measuring virus-induced cell death required a 72-hour incubation of ZIKV in the presence of compounds at 37° C. in 5% CO2. Following this incubation, 3.5 μl/well of ATP content detection reagent was added to assay plates, incubated for 30 minutes at the room temperature, and the resultant luminescence signal was measured in a ViewLux plate reader.
Caspase-Glo 3/7 assay kit (Promega) was used to detect caspase 3/7 activity. Reagents were reconstituted as described in the protocol from the manufacturer. Cells were seeded in 384- and 1536-well assay plates and cultured at 37° C. with 5% CO2 for 16 hours. ZIKV solution was added to cells, followed by incubation at 37° C. with 5% CO2 for 6 hours. Caspase-Glo 3/7 was added to each well at a 1:1 ratio, unless otherwise specified, and incubated at room temperature for 30 minutes. The luminescence intensity of the assay plates was measured using a ViewLux plate reader (PerkinElmer). Data was normalized by using the cell-containing wells without ZIKV as a negative (0% induction of caspase 3/7 activity) control and wells containing ZIKV infected cells that induced caspase 3/7 activity were used as a positive control (100% induction of caspase 3/7 activity).
Human NPCs were seeded onto PDL coated 1536-well assay plates at 250 cells per 3 μl/well and incubated at 37° C. in 5% CO2 for 16 hours. Test compounds dissolved in DMSO were transferred to assay plates at a volume of 23 nl/well by an automated pintool workstation (Wako Automation, San Diego, Calif.). Compounds were incubated with cells for 30 minutes at 37° C. in 5% CO2, immediately followed by the addition of 2 μl/well of ZIKV. Incubation time of compound-treated cells with ZIKV varied based on assay format. Experiments measuring virus induced caspase 3/7 activity required a 6 hour incubation of ZIKV in the presence compounds at 37° C. in 5% CO2. […]

[3] = tested on: ZIKV-induced caspase 3/7 activity in SNB-19 cells; test: Caspase 3/7 activity assay, ZIKV-infected SNB-19 cells; type: cell-based; settings: Homo sapiens
Description: as §1, §2

[4] = tested on: ZIKV-induced cell death in SNB-19 cells; test: ATP cell viability assay for ZIKV-induced cell death, SNB-19 cells; type: cell-based, human; settings: for IC50: Homo sapiens
Description: (§3) The reagent was reconstituted and prepared as described by the manufacturer. In order to measure the cell death caused by ZIKV infection, cells were cultured for 16 hours at 37° C. with 5% CO2 in assay plates, followed by the addition of ZIKV solution and incubation at 37° C. with 5% CO2 for 72 hours. ATPlite, the ATP monitoring reagent, was then added to the assay plates and they were incubated for 15 minutes. The resulting luminescence was measured using the ViewLux plate reader (Perkin Elmer). Data were normalized using the wells without cells as a control for 100% cell killing, and cell-containing wells without ZIKV infection were used as full cell viability (0% cell killing). […]
as §3, with “The ATPlite luminescence assay system assay kit (PerkinElmer) was used to determine cell viability. The reagent” for “The reagent”, “by the manufacture. In order” for “by the manufacturer. In order”, “followed by addition of” for “followed by the addition of”, “plates and incubated for” for “plates and they were incubated for”, “Elmer). Data was normalized using” for “Elmer). Data were normalized using”

[5] = tested on: ZIKV-induced cell death in human astrocytes; test: ATP cell viability assay for ZIKV-induced cell death, human astrocytes; type: cell-based; settings: for IC50: Astrocyte, read-out: Cell viability (IC50, uM) Astrocyte
[6] = ZIKV-infected SNB-19 cells, read-out: Caspase 3 (IC50, uM) SNB-19
[7] = ZIKV-infected SNB-19 cells, read-out: Caspase 3 (efficacy, %) SNB-19
[8] = ZIKV-infected SNB-19 cells, read-out: Cell viability (IC50, uM) SNB-19

SMILES	IC50 ([1]; ZIKV-infected human astrocytes) [µM]	Emax ([1]; ZIKV-infected human astrocytes) [%]	IC50 ([2]; ZIKV-infected hNPCs) [µM]	Emax ([2]; ZIKV-infected hNPCs) [%]	IC50 [3, 6] [µM]	Emax [3, 7] [%]	Cell viability (efficacy, %) SNB-19 ([4]; ZIKV-infected SNB-19 cells) [%]	Cell viability (efficacy, %) Astrocyte ([5]; ZIKV-infected human astrocytes) [%]	IC50 [4, 8] [µM]	IC50 ([1]; Homo sapiens) [µM]	Emax ([1]; Homo sapiens) [%]	Emax [2] [%]	IC50 ([3]; SNB-19, read-out: Caspase 3 (IC50, uM) SNB-19) [µM]	Emax ([3]; SNB-19, read-out: Caspase 3 (efficacy, %) SNB-19) [%]	IC50 ([4]; SNB-19, read-out: Cell viability (IC50, uM) SNB-19) [µM]	IC50 ([5]; Homo sapiens) [µM]	IC50 ([5]; ZIKV-infected human astrocytes) [µM]
COc1ccc(-c2coc3cc(O)ccc3c2=O)cc1 [Formononetin]	14.6	94.7	10.9	88.3	12.3	104	0.0	0.0	–	–	–	–	–	–	–	–	–
O=C(Nc1ccc(OC(F)(F)F)cc1)c1sccc1NCc1ccnc2ccccc12 [OSI-930]	8.2	91.5	6.9	96.9	6.9	114	71.2	0.0	3.08	–	–	–	–	–	–	–	–
O=C(O)[C@@H](c1ccc(OCc2ccc3ccccc3n2)cc1)C1CCCC1 [Veliflapon]	9.2	65.9	9.75	74.3	13.8	70	0.0	0.0	–	–	–	–	–	–	–	–	–
Cc1nc(-c2ccc(OCC(C)C)c(C#N)c2)sc1C(=O)O [Febuxostat]	2.31	84.8	3.88	83.2	2.91	104	68.4	0.0	3.66	–	–	–	–	–	–	–	–
COc1cccc2c1C(=O)c1c(O)c3c(c(O)c1C2=O)C[C@@](O)(C(=O)CO)C[C@@H]3O[C@H]1C[C@H](N2CCO[C@H](OC)C2)[C@H](O)[C@H](C)O1 [Nemorubicin]	–	–	–	–	–	–	117	146	–	15.5	42.6	82.9	30.8	53.1	0.41	0.87	–
O=C1C[C@@H](c2ccc(O)cc2)Oc2cc(O)cc(O)c21 [Naringenin]	17.3	65.2	15.5	63.4	15.5	66.3	0.0	0.0	–	–	–	–	–	–	–	–	–
Cc1oncc1C(=O)Nc1ccc(C(F)(F)F)cc1 [Leflunomide]	4.35	98.1	1.38	97.8	3.27	106	0.0	0.0	–	–	–	–	–	–	–	–	–
O=c1c(-c2ccc(O)cc2)coc2cc(O[C@@H]3O[C@H](CO)[C@@H](O)[C@H](O)[C@H]3O)cc(O)c12 [Genistin]	25.9	60.2	17.3	58.6	23.1	58.1	0.0	0.0	–	–	–	–	–	–	–	–	–
CC(/C=C1\SC(=S)N(CC(=O)O)C1=O)=C\c1ccccc1 [Epalrestat]	19.5	93.3	15.5	72.1	20.6	79.2	82.1	0.0	5.48	–	–	–	–	–	–	–	–
CN1CC[C@@]2(C)c3cc(OC(=O)Nc4ccccc4)ccc3N(C)[C@@H]12 [Phenserine]	25.9	47.4	25.9	51.5	19.5	38.4	0.0	0.0	–	–	–	–	–	–	–	–	–
CC(=O)Oc1ccccc1C(=O)Nc1ncc([N+](=O)[O-])s1 [Nitazoxanide]	2	90.3	1.26	82.3	2.24	86.4	62.1	53.6	23.7	–	–	–	–	–	–	–	31.6
O=c1c2ccccc2[se]n1-c1ccccc1 [Ebselen]	8.2	93.8	8.2	109	17.3	117	0.0	0.0	–	–	–	–	–	–	–	–	–
COc1cc2nc(N3CCN(C(=O)C4CCCO4)CC3)nc(N)c2cc1OC (stereo not drawn) [Terazosin hydrochloride]	12.3	88.9	10.9	84.4	17.3	77.3	–	–	–	–	–	–	–	–	–	–	–
